Read-outs that look alike come from different tables or passages of the source.
Legend:
[1] = test system: M. smegmatis ΔglgE mutant; test: Sensitivity of the M. smegmatis ΔglgE mutant toward mono- and disaccharides (growth on Middlebrook 7H10 agar); assay type: cell-based; conditions: for growth of the mutant: glucose disaccharides
From the text: FIG. 2A-2F. Characterization of the M. smegmatis ΔglgE mutant. […] (B). Trehalose sensitivity of the ΔglgE mutant. […] (D) Trehalose sensitivity of the ΔglgB mutant. (E) M1P accumulation in the ΔglgE and ΔglgB mutants determined by TLC/autoradiography analysis of extracts from cells labeled with 14C-trehalose for the indicated time intervals. (F) Maltose accumulation in Δpep2 mutant strains determined by TLC/autoradiography analysis of cell extracts from cells labeled with 14C-trehalose for 30 min. In (B) and (D), equal dilutions of cultures were spotted onto Middlebrook 7H10 agar plates containing trehalose. Comp. refers to mutants complemented with the respective WT genes.
The sensitivity was highly specific, since growth of the mutant was not inhibited by other glucose disaccharides like maltose or α,β-trehalose [α-D-glucopyranosyl-(1→1)-β-D-glucopyranoside].

Mtb GlgE = Mtb GlgE (Mycobacterium tuberculosis, UniProt P9WQ17); assay type: biochemical; conditions: for Km: read-out: Km^app
Sequence of Mtb GlgE (P9WQ17 whole entry): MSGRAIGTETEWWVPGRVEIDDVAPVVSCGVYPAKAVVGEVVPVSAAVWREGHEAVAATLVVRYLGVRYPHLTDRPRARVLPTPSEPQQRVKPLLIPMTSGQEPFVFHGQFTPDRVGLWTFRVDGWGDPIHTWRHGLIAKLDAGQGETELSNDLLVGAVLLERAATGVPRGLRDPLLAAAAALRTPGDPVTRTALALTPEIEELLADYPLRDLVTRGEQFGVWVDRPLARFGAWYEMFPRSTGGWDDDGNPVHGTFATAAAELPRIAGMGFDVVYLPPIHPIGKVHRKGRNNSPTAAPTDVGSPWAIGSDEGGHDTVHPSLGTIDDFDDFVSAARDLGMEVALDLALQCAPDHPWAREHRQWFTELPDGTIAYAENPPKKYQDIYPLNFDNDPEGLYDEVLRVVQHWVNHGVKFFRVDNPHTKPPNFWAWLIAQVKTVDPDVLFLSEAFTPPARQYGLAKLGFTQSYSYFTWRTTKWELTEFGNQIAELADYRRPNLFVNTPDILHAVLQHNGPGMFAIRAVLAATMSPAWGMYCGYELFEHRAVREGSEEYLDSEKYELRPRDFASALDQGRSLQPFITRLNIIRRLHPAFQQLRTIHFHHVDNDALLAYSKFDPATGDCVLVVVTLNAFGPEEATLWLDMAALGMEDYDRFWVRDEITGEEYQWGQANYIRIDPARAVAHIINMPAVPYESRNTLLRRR

Mtb WT = assay type: cell-based, Mycobacterium tuberculosis
[2] = test system: Mtb ΔtreS ΔglgE (pMV361::treS); assay type: cell-based, Mycobacterium tuberculosis; conditions: in the presence of 5 mM VA; TLC
trehalose synthase TreS = conditions: reference 13; cited from earlier work
Mtb = conditions: reference 14; cited from earlier work
[3] = test system: M. smegmatis ΔglgB mutant; assay type: cell-based; conditions: to a somewhat smaller extent than ΔglgE
[4] = donor M1P with 1 mM maltohexaose
[5] = acceptor maltohexaose with 1 mM M1P

Which “growth of the mutant” value [1] does the source give for `OC[C@H]1O[C@H](O[C@H]2[C@H](O)[C@@H](O)C(O)O[C@@H]2CO)[C@H](O)[C@@H](O)[C@@H]1O` (mixture of isomers) [maltose] here?
The value was “not inhibited”.

Which results are given for `O=P(O)(O)O[C@H]1O[C@H](CO)[C@@H](O[C@H]2O[C@H](CO)[C@@H](O)[C@H](O)[C@H]2O)[C@H](O)[C@H]1O` [M1P, α-D-glucopyranosyl(1→4)-α-D-glucopyranosyl 1-phosphate]?
kcat^app (Mtb GlgE; [4]): 1.26 ± 0.07 s⁻¹; Km (Mtb GlgE; [4]): 0.25 ± 0.05 mM

Which “tolerated concentration of the inhibitor” value (Mtb WT) does the source give for `OCC1=C[C@@H](N[C@H]2C[C@H](CO)[C@@H](O[C@H]3O[C@@H](CO)[C@H](O)[C@@H](O)[C@@H]3O)[C@H](O)[C@H]2O)[C@H](O)[C@@H](O)[C@@H]1O` [VA, Validamycin A] here?
The value was 10 mM.

And the M1P accumulation [2]?
Its M1P accumulation is “only low levels”.

What about the “inhibition of TreS” value (trehalose synthase TreS) of the same compound?
The value was “inhibit”.

Which “phosphate converted to M1P” value (Mtb GlgE) does the source give for `O=P(O)(O)O` [inorganic phosphate] here?
Its value is about 10%.

And the Km (Mtb GlgE; inorganic phosphate, reverse reaction, estimated)?
The Km was 6 ± 4 mM.

For `NNC(=O)c1ccncc1` [isoniazid], which “1 mg/l expressed as multiple of the MIC” value (Mtb) is on record?
Its value is 20 times the MIC.

For `OC[C@H]1O[C@H](O[C@H]2O[C@H](CO)[C@@H](O)[C@H](O)[C@H]2O)[C@H](O)[C@@H](O)[C@@H]1O` [trehalose, α-D-glucopyranosyl-(1→1)-α-D-glucopyranoside], which “concentration that completely inhibited growth” value [1] is on record?
Its value is 0.5 mM.

What about the “growth of the mutant” value [1] of the same compound?
Its value is “bacteriostatic growth arrest”.

And the “sensitivity of the mutant” value [3]?
The value was “sensitive”.

With `OC[C@H]1O[C@@H](O[C@H]2O[C@H](CO)[C@@H](O)[C@H](O)[C@H]2O)[C@H](O)[C@@H](O)[C@@H]1O` [α,β-trehalose, α-D-glucopyranosyl-(1→1)-β-D-glucopyranoside] as the compound, how does the “growth of the mutant” value [1] read?
Its value is “not inhibited”.

Which “GlgE activity as donor” value (Mtb GlgE) does the source give for `O=P(O)(O)OC1OC(CO)C(OC2OC(CO)C(O)C(O)C2O)C(O)C1O` (stereo not drawn) [β anomer of M1P] here?
Its value is “no activity”.

Which results are given for maltohexaose?
kcat^app (Mtb GlgE; [5]): 7.5 ± 0.4 s⁻¹; Km (Mtb GlgE; [5]): 13.3 ± 2.4 mM; kcat^app (Mtb GlgE; acceptor maltohexaose with 5 mM M1P): 15.4 ± 1.1 s⁻¹; Km (Mtb GlgE; acceptor maltohexaose with 5 mM M1P, pH 7.0, 37° C): 35 ± 8 mM

Reference: patent US8455214B2, “Methods for determining chemotherapeutic agents targeting alpha-glucan pathways and uses thereof” (priority 2009, dated 2013)
